# Test results published in PMC7958136, “ANT1 Activation and Inhibition Patterns Support the Fatty Acid Cycling Mechanism for Proton Transport” (International Journal of Molecular Sciences, 2021).
# Target: T1, recombinant murine ANT1 (mANT1; adenine nucleotide translocase 1) (Mus musculus, UniProt P48962)
# T1 construct: gene Slc25a4
# T1 sequence (P48962 2-298): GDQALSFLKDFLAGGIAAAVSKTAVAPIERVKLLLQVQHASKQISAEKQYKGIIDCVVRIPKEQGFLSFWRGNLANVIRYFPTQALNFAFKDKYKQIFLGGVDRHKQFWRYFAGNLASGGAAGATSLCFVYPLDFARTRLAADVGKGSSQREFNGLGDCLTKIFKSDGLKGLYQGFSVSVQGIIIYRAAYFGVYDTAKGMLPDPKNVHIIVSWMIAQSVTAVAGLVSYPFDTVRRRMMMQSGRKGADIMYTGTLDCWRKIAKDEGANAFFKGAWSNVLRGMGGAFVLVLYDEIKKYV
# Assay: inhibition of fatty-acid-activated proton conductance, planar lipid bilayer with reconstituted ANT1
# Format: biochemical
# Settings: not given
row,SMILES,EC50
1,CO[C@H](C/C=C\C=C\CC/C=C/C[C@H](C)/C=C/C(=C\C(=O)O)CC(=O)O)/C(C)=C\C=C(/C)C(=O)O [bongkrekic acid],32.3 ± 11.4 µM

# Same assay, conditions: read-out: EC50
row,SMILES,EC50
1,Nc1ncnc2c1ncn2[C@@H]1O[C@H](COP(=O)(O)OP(=O)(O)O)[C@@H](O)[C@H]1O [ADP],1310 ± 537 µM
2,Nc1ncnc2c1ncn2[C@@H]1O[C@H](COP(=O)(O)O)[C@@H](O)[C@H]1O [AMP],2660 ± 817 µM
3,Nc1ncnc2c1ncn2[C@@H]1O[C@H](COP(=O)(O)OP(=O)(O)OP(=O)(O)O)[C@@H](O)[C@H]1O [ATP],250 ± 34 µM
4,Nc1nc2c(ncn2[C@@H]2O[C@H](COP(=O)(O)OP(=O)(O)O)[C@@H](O)[C@H]2O)c(=O)[nH]1 [GDP],5410 ± 2010 µM
5,Nc1nc2c(ncn2[C@@H]2O[C@H](COP(=O)(O)OP(=O)(O)OP(=O)(O)O)[C@@H](O)[C@H]2O)c(=O)[nH]1 [GTP],3320 ± 93 µM
